# Patent publication US8138188B2, “Melanocortin type 4 receptor agonist piperidinoylpyrrolidines” (Pfizer Inc., priority 2006, dated 2012)
# Biological target: T1, MC3 receptor (MC3R) (Homo sapiens, UniProt P41968)
# T1 construct: expressed in transfected cells; host or cells: CHO-CRE MC3R cells (membranes)
# Assay: Nle4, D-Phe7-α-MSH inhibition at the MC3 receptor (SPA competition binding)
# Settings: vs 0.06 nM Nle4, D-Phe7-α-MSH, CHO-CRE MC3R cell membranes
# Description: Nle4, D-Phe7-α-MSH Inhibition at the MC3 Receptor
# Nle4, D-Phe7-α-MSH is a stable analogue of melanocyte-stimulating hormone (MSH), which is an agonist at the MC3 receptor (MC3R). Compounds can be evaluated for their ability to inhibit Nle4, D-Phe7-α-MSH binding to membranes from cells expressing the MC3R using a competition binding assay versus [^125I] Nle4, D-Phe7-α-MSH.
# Cells expressing the MC3R were subject to homogenisation and the membrane fragment isolated by differential centrifugation. CHO-CRE MC3R cell membranes were coupled to PVT-PEI-WGA SPA Beads type A for 2 hours, spun at 1000 RPM for 5 mins and suspended to a final assay concentration of 800 ug bead/ml (1.2 ug membrane, 40 ug bead per well). Bead/membrane mix was incubated with 0.06 nM Nle4, D-Phe7-α-MSH and 11 half-log concentrations of competitor ligand, in duplicate, in a total volume of 50 μl buffer per well (25 mM HEPES, 1 mM MgCl2, 2.5 mM CaCl2, 1% Pluronic F68, 1 complete EDTA protease inhibitor tablet/50 ml pH7).
# Non-specific binding was determined by the inclusion of 100 nM SHU9119. The reaction was initiated by the addition of bead/membranes and plates were incubated at room temperature for 12 hours (the first hour on a plate shaker), after which the amount of radioactivity present was determined using a Wallac plate counter. Ki values were determined by data analysis using appropriate software.
# T1 sequence (P41968 whole entry): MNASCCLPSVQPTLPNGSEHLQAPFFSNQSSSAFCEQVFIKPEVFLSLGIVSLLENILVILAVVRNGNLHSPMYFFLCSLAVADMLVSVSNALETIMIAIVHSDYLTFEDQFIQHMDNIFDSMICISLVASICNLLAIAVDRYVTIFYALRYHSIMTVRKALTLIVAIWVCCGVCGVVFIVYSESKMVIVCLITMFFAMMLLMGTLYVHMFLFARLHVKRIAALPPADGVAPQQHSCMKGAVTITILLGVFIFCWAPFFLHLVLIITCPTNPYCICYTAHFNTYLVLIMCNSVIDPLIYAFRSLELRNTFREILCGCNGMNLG
row,SMILES,Ki
1,"C[C@@H]1CN(C(=O)[C@@H]2CN(c3ccc(C#N)nn3)C[C@H]2c2ccc(Cl)cn2)C[C@H](C)[C@@]1(O)c1ccc(F)cc1 [Example 2, 6-[(3S,4S)-3-(5-Chloropyridin-2-yl)-4-{[(3R,4R,5S)-4-(4-fluorophenyl)-4-hydroxy-3,5-dimethylpiperidin-1-yl]carbonyl}pyrrolidin-1-yl]pyridazine-3-carbonitrile]",124 nM
2,C[C@@H]1CN(C(=O)[C@@H]2CN(c3ccc(=O)n(C)n3)C[C@H]2c2ccc(Cl)cn2)C[C@H](C)[C@@]1(O)c1ccc(Cl)cn1 [Example 10],977 nM
3,C[C@@H]1CN(C(=O)[C@@H]2CN(c3ccc(=O)n(C)n3)C[C@H]2c2ccc(Cl)cn2)C[C@H](C)[C@@]1(O)C1CCCCC1 [Example 17],332 nM
4,CC1CN(C(=O)C2CN(c3ccc(=O)n(C)n3)CC2c2ccc(Cl)cn2)CC(C)C1(O)c1ccc(F)c(F)c1 (centres unmarked) [Example 19],568 nM
5,COc1ccc(C2(O)C(C)CN(C(=O)C3CN(c4ccc(=O)n(C)n4)CC3c3ccc(Cl)cn3)CC2C)cc1 (centres unmarked) [Example 20],1020 nM
6,C[C@@H]1CN(C(=O)[C@@H]2CN(c3ccc(=O)n(C)n3)C[C@H]2c2ccc(Cl)cn2)C[C@H](C)[C@@]1(O)c1ccccn1 [Example 22],5560 nM

# The remaining lines, values ahead:
row,Ki,SMILES
1,264 nM,CC1CN(C(=O)C2CN(c3ccc(=O)n(C)n3)CC2c2ccc(Cl)cn2)CC(C)C1(O)c1ccc(Cl)cc1 (centres unmarked) [Example 23]
2,< 0.105 nM,CC1CN(C(=O)C2CN(c3cncc(F)c3)CC2c2ccc(Cl)cn2)CC(C)C1(O)c1ccc(F)cc1 (centres unmarked) [Example 25]
3,1670 nM,C[C@@H]1CN(C(=O)[C@@H]2CN(c3ccc(=O)[nH]n3)C[C@H]2c2ccc(Cl)cn2)C[C@H](C)[C@@]1(O)c1ccccn1 [Example 28]
4,456 nM,C[C@@H]1CN(C(=O)[C@@H]2CN(c3ccc(C#N)nn3)C[C@H]2c2ccc(F)cn2)C[C@H](C)[C@@]1(O)c1ccc(Cl)cc1 [Example 32]
5,551 nM,C[C@@H]1CN(C(=O)[C@@H]2CN(c3ccc(C#N)nn3)C[C@H]2c2ccc(C#N)cn2)C[C@H](C)[C@@]1(O)c1ccc(F)cc1 [Example 46]
